# Assay results as given in the supplement of paper PMC10307832.
# Tests used:
# Experiment in all cases: relative viability (nuclei count vs DMSO), 5 days (fraction); higher = more cells survive
# [1] = compound: Cc1ccc(C(=O)N(CCCN)[C@@H](c2nc3cc(Cl)ccc3c(=O)n2Cc2ccccc2)C(C)C)cc1 [Ispinesib] + CC(C)C[C@H](NC(=O)[C@H](Cc1ccccc1)NC(=O)c1cnccn1)B(O)O [Bortezomib] (partner 0.002 µM)
# In short: (§1)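 Five library-drug doses in √10 steps were combined with a fixed anchor-drug dose, or a single drug was given alone, by pin tool to lung cancer cell lines in 1536-well plates the day after seeding. Nuclei were stained and counted after 5 days. Relative viability is the nuclei count in treated wells over that in vehicle wells, taken as the median of duplicate plates.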
# [2] = compound: C[C@]1(O)C[C@@H](c2nc(-c3ccc4ccc(-c5ccccc5)nc4c3)c3c(N)nccn32)C1 [Linsitinib] + CCNC(=O)c1noc(-c2cc(C(C)C)c(O)cc2O)c1-c1ccc(CN2CCOCC2)cc1 [Luminespib] (partner 0.01 µM)
# In short: as §1
# [3] = compound: C[C@]1(O)C[C@@H](c2nc(-c3ccc4ccc(-c5ccccc5)nc4c3)c3c(N)nccn32)C1 [Linsitinib] + NC(=O)Nc1cc(-c2cccc(F)c2)sc1C(=O)N[C@H]1CCCNC1 [AZD7762] (partner 0.2 µM)
# In short: as §1
# [4] = compound: Cc1ccc(C(=O)N(CCCN)[C@@H](c2nc3cc(Cl)ccc3c(=O)n2Cc2ccccc2)C(C)C)cc1 [Ispinesib] + CS(=O)(=O)CCNCc1ccc(-c2ccc3ncnc(Nc4ccc(OCc5cccc(F)c5)c(Cl)c4)c3c2)o1 [Lapatinib] (partner 2 µM)
# In short: as §1
Cell Line,relative viability ([1]; first compound 0.001 µM),relative viability ([1]; first compound 0.003162 µM),relative viability ([1]; first compound 0.01 µM),relative viability ([1]; first compound 0.03162 µM),relative viability ([1]; first compound 0.1 µM),relative viability ([2]; first compound 0.01 µM),relative viability ([2]; first compound 0.03162 µM),relative viability ([2]; first compound 0.1 µM),relative viability ([2]; first compound 1 µM),relative viability ([3]; first compound 0.01 µM),relative viability ([3]; first compound 0.03162 µM),relative viability ([3]; first compound 0.1 µM),relative viability ([3]; first compound 1 µM),relative viability ([4]; first compound 0.001 µM),relative viability ([4]; first compound 0.003162 µM),relative viability ([4]; first compound 0.01 µM),relative viability ([4]; first compound 0.03162 µM),relative viability ([4]; first compound 0.1 µM),relative viability ([2]; first compound 0.3162 µM),relative viability ([3]; first compound 0.3162 µM)
HOP-62,0.46,0.974,1.18,1.09,0.32,0.939,0.964,0.923,0.694,0.583,0.577,0.769,0.298,1.11,1.07,1.15,1.11,0.231,–,–
LC-2-ad,1.01,1.07,1.07,0.917,0.119,1,1.07,0.971,0.877,0.862,0.816,0.814,0.54,0.949,1.02,1.07,0.504,0.114,0.873,0.805
NCI-H522,–,–,–,–,–,1.55,1.18,1.18,1.2,0.771,0.958,1.09,0.612,–,–,–,–,–,0.961,0.654
NCI-H322M,1.38,1.33,1.41,0.722,0.757,0.946,0.444,0.856,0.658,0.575,0.411,0.485,0.414,0.654,0.585,0.616,0.438,0.319,0.698,0.49
SK-LU-1,1.32,1.39,1.48,0.585,0.461,0.212,–,0.203,0.215,–,–,–,–,0.797,1.06,0.825,0.468,0.364,0.208,–
NCI-H1734,0.943,0.954,0.997,0.962,0.328,0.204,0.206,0.198,0.178,0.61,0.534,0.579,0.363,1.16,1.11,1.4,0.408,0.296,0.154,0.794
HCC-44,0.911,1,1.1,0.719,0.131,1.12,1.01,0.818,0.912,1.01,0.962,0.995,0.925,1.05,1.01,1.37,0.658,0.158,0.68,0.855
NCI-H1703,0.28,0.298,0.0844,0.0907,0.106,–,–,–,–,0.158,0.142,0.112,0.12,1.32,0.893,0.227,0.11,0.234,–,–
NCI-H2170,–,–,–,–,–,0.704,0.761,0.515,0.687,0.918,0.959,0.768,0.68,0.265,0.252,0.269,0.182,0.214,0.557,–
NCI-H1395,–,–,–,–,–,0.672,0.585,0.616,0.732,0.373,–,0.394,0.38,1.1,1.11,0.779,0.545,0.33,0.63,0.477
